PMC7619385 (ACS infectious diseases, 2025)
Where two headings read alike, the source gives them in different places.

Target: T1, LmxCLK1 (Leishmania mexicana, UniProt E9AMP2)
T1 sequence (E9AMP2 1-422): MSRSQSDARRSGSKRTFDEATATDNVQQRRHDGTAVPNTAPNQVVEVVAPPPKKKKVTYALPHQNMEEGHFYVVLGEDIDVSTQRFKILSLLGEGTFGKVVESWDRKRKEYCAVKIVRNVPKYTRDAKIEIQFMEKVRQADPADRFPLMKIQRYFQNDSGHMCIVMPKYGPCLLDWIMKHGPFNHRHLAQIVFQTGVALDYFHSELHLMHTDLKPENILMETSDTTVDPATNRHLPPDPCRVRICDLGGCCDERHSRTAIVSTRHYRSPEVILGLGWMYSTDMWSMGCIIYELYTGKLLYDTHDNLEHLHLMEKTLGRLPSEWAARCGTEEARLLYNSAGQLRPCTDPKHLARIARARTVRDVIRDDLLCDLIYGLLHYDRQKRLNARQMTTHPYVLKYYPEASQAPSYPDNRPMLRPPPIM
Assay: biochemical
Type: binding

[1] = DSF, 10 µM compound, 2 µM LmxCLK1, Run 1
[2] = DSF, 10 µM compound, 2 µM LmxCLK1, Run 2
[3] = DSF, 10 µM compound, 2 µM LmxCLK1, mean of two runs
[4] = DSF, 10 µM compound, 2 µM LmxCLK1, Run 1, read-out: ΔTm Run 1
[5] = DSF, 10 µM compound, 2 µM LmxCLK1, Run 2, read-out: ΔTm Run 2
[6] = DSF, 10 µM compound, 2 µM LmxCLK1, mean of two runs, read-out: ΔTm Average

Compound | ΔTm Run 1 [1] [°C] | ΔTm Run 2 [2] [°C] | ΔTm Average [3] [°C] | further results
O=C(c1cccc(Cl)c1F)N1CCN(Cc2cccc(Nc3nccs3)n2)CC1 [MK-8745] | 1.1 | 1.0 | 1.0 | –
Cn1cc(-c2cnn3c(N)c(Br)c([C@@H]4CCCNC4)nc23)cn1 [MK-8776 (SCH 900776)] | – | – | – | ΔTm Average: 0.3 °C; ΔTm Run 1: 0.5 °C; ΔTm Run 2: 0 °C
O=C(O)c1ccc(Nc2ncc3c(n2)-c2ccc(Cl)cc2C(c2c(F)cccc2F)=NC3)cc1 [MLN8054] | – | – | – | ΔTm at 10 µM [4]: 0.3 °C; ΔTm at 10 µM [5]: 0.1 °C; ΔTm at 10 µM [6]: 0.2 °C
Cc1ccc(NC(=O)c2ccc(CN3CCN(C)CC3)cc2)cc1Nc1nc(-c2cccnc2)cs1 [Masitinib (AB1010)] | 0.3 | 0.2 | 0.2 | –
CNC(=O)c1nn(C)c2c1C(C)(C)Cc1cnc(Nc3ccc(N4CCN(C)CC4)cc3)nc1-2 [Milciclib (PHA-848125)] | 0.1 | -0.2 | 0.0 | –
CC1(C)CNc2cc(NC(=O)c3cccnc3NCc3ccncc3)ccc21.O=P(O)(O)O.O=P(O)(O)O [Motesanib Diphosphate (AMG-706)] | 0.3 | 0.1 | 0.2 | –
FC(F)(F)c1ccc(/C=C/c2nc(COc3ccc(CCCCn4ccnn4)cc3)co2)cc1 [Mubritinib (TAK 165)] | – | – | – | ΔTm Average: 0.2 °C; ΔTm Run 1: 0.4 °C; ΔTm Run 2: 0 °C
CN1CCN(c2ccc(OC(F)(F)F)c(Nc3ncc4c(n3)-c3c(c(C(N)=O)nn3CCO)CC4)c2)CC1 [NMS-P937 (NMS1286937)] | 0.0 | 0.0 | 0.0 | –
CCN(CC)CCCC(C)Nc1nc(C)cc(Nc2ccc3nc(C)cc(N)c3c2)n1 (stereo not drawn) [NSC 23766] | 0.0 | -0.1 | 0.0 | –
Nc1nc(N)c(N=O)c(OCC2CCCCC2)n1 [NU6027] | – | – | – | ΔTm at 10 µM (read-out: ΔTm Average): 0 °C; ΔTm at 10 µM (read-out: ΔTm Run 1): 0.1 °C; ΔTm at 10 µM (read-out: ΔTm Run 2): -0.2 °C
O=c1cc(N2CCOCC2)oc2c(-c3cccc4c3sc3ccccc34)cccc12 [NU7441 (KU-57788)] | 0.0 | -0.2 | -0.1 | –
Nc1ncnc2c1c(-c1cccc(OCc3ccccc3)c1)cn2C1CC(CN2CCCC2)C1 (stereo not drawn) [NVP-ADW742] | 0.0 | -0.2 | -0.1 | –
Nc1ncnc2c1c(-c1cccc(OCc3ccccc3)c1)cn2[C@H]1C[C@@H](CN2CCC2)C1 [NVP-AEW541] | – | – | – | ΔTm at 10 µM [4]: 0.1 °C; ΔTm at 10 µM [5]: -0.1 °C; ΔTm at 10 µM [6]: 0 °C
Cc1ccc(C(=O)Nc2cccc(C(F)(F)F)c2)cc1Nc1nc(-c2cccnc2)nc2c1cnn2C [NVP-BHG712] | 0.1 | -0.3 | -0.1 | –
Cl.Cl.Fc1cc(-c2cccc3ncc(-c4cnn(C5CCNCC5)c4)nc23)cc(F)c1CN1CCOCC1 [NVP-BSK805 2HCl] | 0.9 | 0.7 | 0.8 | –
Cn1cc(-c2ccc3ncc(Cc4ccc5ncccc5c4)n3n2)cn1 [NVP-BVU972] | 0.3 | 0.0 | 0.2 | –
Cc1cn(-c2cc(NC(=O)c3ccc(C)c(Nc4nccc(-c5cccnc5)n4)c3)cc(C(F)(F)F)c2)cn1 [Nilotinib (AMN-107)] | 0.0 | 0.0 | 0.0 | –
C[C@]1(O)C[C@@H](c2nc(-c3ccc4ccc(-c5ccccc5)nc4c3)c3c(N)nccn32)C1 [OSI-906 (Linsitinib)] | 0.0 | -0.3 | -0.2 | –
NCC(=O)Nc1ccc(-n2nc(C(F)(F)F)cc2-c2ccc3c(ccc4ccccc43)c2)cc1 [OSU-03012 (AR-12)] | -0.1 | 0.2 | 0.0 | –
CN1CCC(c2c(O)cc(O)c3c(=O)cc(-c4ccccc4Cl)oc23)C1CO (stereo not drawn) [P276-00] | – | – | – | ΔTm Average: 0.3 °C; ΔTm Run 1: 0.4 °C; ΔTm Run 2: 0.3 °C
C=CC(=O)Nc1ccc2ncnc(Nc3cccc(Br)c3)c2c1 [PD168393] | 0.3 | -0.7 | -0.2 | –
CCN(CC)CCCCNc1ncc2cc(-c3cc(OC)cc(OC)c3)c(NC(=O)NC(C)(C)C)nc2n1 [PD173074] | – | – | – | ΔTm at 10 µM [4]: 0.1 °C; ΔTm at 10 µM [5]: -0.1 °C; ΔTm at 10 µM [6]: 0 °C
CSc1cccc(Nc2ncc3cc(-c4c(Cl)cccc4Cl)c(=O)n(C)c3n2)c1 [PD173955] | 0.0 | -0.3 | -0.1 | –
O=C(NOCC(O)CO)c1cc(Br)c(F)c(F)c1Nc1ccc(I)cc1F (stereo not drawn) [PD318088] | 0.4 | 0.1 | 0.2 | –

Compound | ΔTm Run 1 [1] [°C] | ΔTm Run 2 [2] [°C] | ΔTm Average [3] [°C] | further results
Cn1cc(-c2[nH]c3cc(NC(=O)[C@H](N)C4CCCCC4)cc4c3c2C=NNC4=O)cn1 [PF-477736] | – | – | – | ΔTm at 10 µM [4]: 1.3 °C; ΔTm at 10 µM [5]: 1.2 °C; ΔTm at 10 µM [6]: 1.2 °C
CN(c1ncccc1CNc1nc(Nc2ccc3c(c2)CC(=O)N3)ncc1C(F)(F)F)S(C)(=O)=O [PF-00562271] | – | – | – | ΔTm Average: -0.1; ΔTm Run 1: 0 °C; ΔTm Run 2: -0.3
CN(c1ncccc1CNc1nc(Nc2ccc3c(c2)CC(=O)N3)ncc1C(F)(F)F)S(C)(=O)=O [PF-562271] | 0.3 | -0.1 | 0.1 | –
CS(=O)(=O)c1cccc(CNc2nc(Nc3ccc4c(c3)CCC(=O)N4)ncc2C(F)(F)F)c1 [PF-573228] | 0.1 | -0.3 | -0.1 | –
Cc1nc(Nc2[nH]nc3c2CN(C(=O)N[C@H](CN(C)C)c2ccccc2)C3(C)C)c2sccc2n1 [PF-3758309] | – | – | – | ΔTm at 10 µM [4]: 0.7 °C; ΔTm at 10 µM [5]: 0.5 °C; ΔTm at 10 µM [6]: 0.6 °C
OCCn1cc(-c2cnc3nnn(Cc4ccc5ncccc5c4)c3n2)cn1 [PF-04217903] | – | – | – | ΔTm Average: 0.2 °C; ΔTm Run 1: 0.1 °C; ΔTm Run 2: 0.3 °C
CCc1cncnc1N1CCN(Cc2nc3ccc(C(F)(F)F)cc3[nH]2)CC1 [PF-4708671] | – | – | – | ΔTm Average: -0.1; ΔTm Run 1: 0.1 °C; ΔTm Run 2: -0.2
CNC(=O)c1ccc(C)c(-n2c(C)cc(OCc3ccc(F)cc3F)c(Br)c2=O)c1 [PH-797804] | – | – | – | ΔTm at 10 µM [4]: -0.1 °C; ΔTm at 10 µM [5]: -0.3 °C; ΔTm at 10 µM [6]: -0.2 °C
Cc1[nH]c(/C=C2\C(=O)Nc3ccc(S(=O)(=O)Cc4c(Cl)cccc4Cl)cc32)c(C)c1C(=O)N1CCC[C@@H]1CN1CCCC1 [PHA-665752] | – | – | – | ΔTm at 10 µM [4]: 0.1 °C; ΔTm at 10 µM [5]: 0.1 °C; ΔTm at 10 µM [6]: 0.1 °C
CCc1cccc(CC)c1NC(=O)N1Cc2n[nH]c(NC(=O)c3ccc(N4CCN(C)CC4)cc3)c2C1 [PHA-680632] | – | – | – | ΔTm at 10 µM [4]: 0.7 °C; ΔTm at 10 µM [5]: 0.6 °C; ΔTm at 10 µM [6]: 0.6 °C
O=C1NCCc2[nH]c(-c3ccncc3)cc21 [PHA-767491] | 0.7 | 1.3 | 1.0 | –
CC(C)CC(=O)Nc1[nH]nc2c1CN(C(=O)C1CCN(C)CC1)C2(C)C [PHA-793887] | – | – | – | ΔTm at 10 µM [4]: 0.1 °C; ΔTm at 10 µM [5]: 0 °C; ΔTm at 10 µM [6]: 0.1 °C
Oc1cccc(-c2nc(N3CCOCC3)c3oc4ncccc4c3n2)c1 [PI-103] | – | – | – | ΔTm at 10 µM [4]: 0 °C; ΔTm at 10 µM [5]: 0 °C; ΔTm at 10 µM [6]: 0 °C
Cc1ccc([N+](=O)[O-])cc1S(=O)(=O)N(C)/N=C/c1cnc2ccc(Br)cn12 [PIK-75] | – | – | – | ΔTm Average: 0.3 °C; ΔTm Run 1: 0.5 °C; ΔTm Run 2: 0.1 °C
CC(=O)Nc1nc(C)c(-c2ccc(Cl)c(S(=O)(=O)NCCO)c2)s1 [PIK-93] | – | – | – | ΔTm Average: 0 °C; ΔTm Run 1: 0 °C; ΔTm Run 2: -0.1
Cc1ccccc1-n1c(Cn2ncc3c(N)ncnc32)nc2cccc(C)c2c1=O [PIK-293] | 0.1 | -0.2 | -0.1 | –
CCCS(=O)(=O)Nc1ccc(F)c(C(=O)c2c[nH]c3ncc(Cl)cc23)c1F [PLX-4720] | – | – | – | ΔTm at 10 µM [4]: -0.3 °C; ΔTm at 10 µM [5]: -0.1 °C; ΔTm at 10 µM [6]: -0.2 °C
Cc1ccc(-c2nn(C(C)(C)C)c3ncnc(N)c23)cc1 [PP1] | – | – | – | ΔTm Average: 0 °C; ΔTm Run 1: 0.2 °C; ΔTm Run 2: -0.2
NC(=O)c1cnc(N[C@@H]2CCCC[C@@H]2N)nc1Nc1cccc(-n2nccn2)c1 [PRT062607 (P505-15)] | – | – | – | ΔTm Average: 1.3 °C; ΔTm Run 1: 1.3 °C; ΔTm Run 2: 1.3 °C
C1=N/C2=N/c3ccc(OCCN4CCCC4)c(c3)COC/C=C/COCc3cccc(c3)C(=C1)N2 [Pacritinib (SB1518)] | 0.2 | 0.1 | 0.2 | –
CC(=O)c1c(C)c2cnc(Nc3ccc(N4CCNCC4)cn3)nc2n(C2CCCC2)c1=O.Cl [Palbociclib (PD-0332991) HCl] | 0.6 | 0.4 | 0.5 | –
COc1ccc(COc2cc3oc(=O)c4cc(C(C)O)ccc4c3cc2OC)cc1 (stereo not drawn) [Palomid 529 (P529)] | 0.3 | -0.1 | 0.1 | –
Cc1ccc(Nc2nccc(N(C)c3ccc4c(C)n(C)nc4c3)n2)cc1S(N)(=O)=O.Cl [Pazopanib HCl (GW786034 HCl)] | -0.1 | 0.0 | -0.1 | –
